Laboratory results: the supplement of paper PMC12463676, “Small-molecule dissolution of stress granules by redox modulation benefits ALS models” (Nature Chemical Biology, 2025)

Experiments:
lipoamide = compound: NC(=O)CCCCC1CCSS1 [lipoamide]; test: thermal stability z-score vs DMSO; higher = more thermally stabilized by treatment; conditions: HeLa, lipoamide concentration 100 µM
Experimental: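 Cellular thermal proteome profiling in HeLa cells. Cells were treated with 100 µM lipoamide for 1 h, with or without 1 mM arsenate for a further 1 h, then heated to ten temperatures (37-66.3 °C), and soluble protein was quantified by TMT mass spectrometry relative to 0.1% DMSO controls. The thermal stability score (sum of log2 fold changes minus the abundance score) was transformed to a z-score; mean of n = 3 experiments.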

potassium arsenate = compound: O=[As]([O-])(O)O.[K+] [potassium arsenate]; test: as above; conditions: HeLa; arsenate concentration 1 mM
Experimental: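 Cellular thermal proteome profiling in HeLa cells treated with 1 mM arsenate for 1 h (DMSO pretreatment), heated to ten temperatures (37-66.3 °C). Soluble protein was quantified by TMT mass spectrometry relative to DMSO controls; the thermal stability score was transformed to a z-score; mean of n = 3 experiments.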

[1] = arsenate co-treatment: 1 mM arsenate 1 h
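Also: each temperature applied for 3 min, abundance score taken as mean log2 fold change at the two lowest temperatures, z-score obtained by mean subtraction and division by SD.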

UniProt P49281, sequence (P49281 whole entry): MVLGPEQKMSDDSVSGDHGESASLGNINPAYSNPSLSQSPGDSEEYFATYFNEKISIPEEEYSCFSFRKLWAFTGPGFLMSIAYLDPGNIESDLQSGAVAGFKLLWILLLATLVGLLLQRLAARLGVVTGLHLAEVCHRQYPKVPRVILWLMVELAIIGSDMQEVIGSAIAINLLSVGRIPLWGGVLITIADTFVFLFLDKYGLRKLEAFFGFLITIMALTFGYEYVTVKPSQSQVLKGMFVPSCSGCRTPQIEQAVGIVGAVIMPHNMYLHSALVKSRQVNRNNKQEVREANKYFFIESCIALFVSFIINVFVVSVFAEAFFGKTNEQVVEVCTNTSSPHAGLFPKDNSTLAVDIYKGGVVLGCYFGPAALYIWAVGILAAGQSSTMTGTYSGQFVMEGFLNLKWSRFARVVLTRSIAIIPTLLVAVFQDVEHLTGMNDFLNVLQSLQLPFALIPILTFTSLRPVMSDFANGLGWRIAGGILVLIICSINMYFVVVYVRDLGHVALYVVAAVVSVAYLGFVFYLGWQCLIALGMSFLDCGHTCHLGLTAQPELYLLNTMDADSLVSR
UniProt Q96BI1, sequence (Q96BI1 whole entry): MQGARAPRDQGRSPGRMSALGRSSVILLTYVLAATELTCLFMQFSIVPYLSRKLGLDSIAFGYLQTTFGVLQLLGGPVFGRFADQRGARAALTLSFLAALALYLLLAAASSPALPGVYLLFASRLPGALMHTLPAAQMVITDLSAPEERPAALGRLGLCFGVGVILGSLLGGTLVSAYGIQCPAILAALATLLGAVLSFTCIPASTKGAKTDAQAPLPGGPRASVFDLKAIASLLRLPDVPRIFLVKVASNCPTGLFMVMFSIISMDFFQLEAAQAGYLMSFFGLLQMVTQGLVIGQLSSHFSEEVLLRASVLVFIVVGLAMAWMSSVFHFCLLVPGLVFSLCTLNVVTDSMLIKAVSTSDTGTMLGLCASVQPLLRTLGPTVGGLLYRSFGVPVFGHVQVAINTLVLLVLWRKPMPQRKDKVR
UniProt Q8N697, sequence (Q8N697 whole entry): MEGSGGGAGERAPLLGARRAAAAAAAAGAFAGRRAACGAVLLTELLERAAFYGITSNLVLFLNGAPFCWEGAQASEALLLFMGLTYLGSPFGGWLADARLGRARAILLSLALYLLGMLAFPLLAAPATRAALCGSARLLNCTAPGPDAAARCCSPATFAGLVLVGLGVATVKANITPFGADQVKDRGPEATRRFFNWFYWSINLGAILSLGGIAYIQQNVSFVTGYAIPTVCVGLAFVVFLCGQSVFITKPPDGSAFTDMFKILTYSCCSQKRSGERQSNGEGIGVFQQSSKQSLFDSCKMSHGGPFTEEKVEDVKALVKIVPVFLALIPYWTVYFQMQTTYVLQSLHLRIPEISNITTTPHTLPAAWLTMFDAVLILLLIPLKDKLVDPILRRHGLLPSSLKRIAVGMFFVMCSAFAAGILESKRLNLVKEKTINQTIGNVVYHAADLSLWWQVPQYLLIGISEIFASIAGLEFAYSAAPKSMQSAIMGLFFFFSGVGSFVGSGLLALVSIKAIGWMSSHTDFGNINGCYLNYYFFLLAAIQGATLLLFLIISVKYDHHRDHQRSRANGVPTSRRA
UniProt O43772, sequence (O43772 whole entry): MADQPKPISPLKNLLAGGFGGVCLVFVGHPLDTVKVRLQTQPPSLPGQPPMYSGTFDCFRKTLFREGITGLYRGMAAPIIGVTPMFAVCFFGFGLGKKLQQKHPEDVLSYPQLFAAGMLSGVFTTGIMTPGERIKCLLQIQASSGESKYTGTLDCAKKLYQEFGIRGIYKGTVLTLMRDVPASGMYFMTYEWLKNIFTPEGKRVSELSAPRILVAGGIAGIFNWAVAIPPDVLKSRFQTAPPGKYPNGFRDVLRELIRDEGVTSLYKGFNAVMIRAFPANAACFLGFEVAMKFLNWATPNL
UniProt Q9UP95, sequence (Q9UP95 whole entry): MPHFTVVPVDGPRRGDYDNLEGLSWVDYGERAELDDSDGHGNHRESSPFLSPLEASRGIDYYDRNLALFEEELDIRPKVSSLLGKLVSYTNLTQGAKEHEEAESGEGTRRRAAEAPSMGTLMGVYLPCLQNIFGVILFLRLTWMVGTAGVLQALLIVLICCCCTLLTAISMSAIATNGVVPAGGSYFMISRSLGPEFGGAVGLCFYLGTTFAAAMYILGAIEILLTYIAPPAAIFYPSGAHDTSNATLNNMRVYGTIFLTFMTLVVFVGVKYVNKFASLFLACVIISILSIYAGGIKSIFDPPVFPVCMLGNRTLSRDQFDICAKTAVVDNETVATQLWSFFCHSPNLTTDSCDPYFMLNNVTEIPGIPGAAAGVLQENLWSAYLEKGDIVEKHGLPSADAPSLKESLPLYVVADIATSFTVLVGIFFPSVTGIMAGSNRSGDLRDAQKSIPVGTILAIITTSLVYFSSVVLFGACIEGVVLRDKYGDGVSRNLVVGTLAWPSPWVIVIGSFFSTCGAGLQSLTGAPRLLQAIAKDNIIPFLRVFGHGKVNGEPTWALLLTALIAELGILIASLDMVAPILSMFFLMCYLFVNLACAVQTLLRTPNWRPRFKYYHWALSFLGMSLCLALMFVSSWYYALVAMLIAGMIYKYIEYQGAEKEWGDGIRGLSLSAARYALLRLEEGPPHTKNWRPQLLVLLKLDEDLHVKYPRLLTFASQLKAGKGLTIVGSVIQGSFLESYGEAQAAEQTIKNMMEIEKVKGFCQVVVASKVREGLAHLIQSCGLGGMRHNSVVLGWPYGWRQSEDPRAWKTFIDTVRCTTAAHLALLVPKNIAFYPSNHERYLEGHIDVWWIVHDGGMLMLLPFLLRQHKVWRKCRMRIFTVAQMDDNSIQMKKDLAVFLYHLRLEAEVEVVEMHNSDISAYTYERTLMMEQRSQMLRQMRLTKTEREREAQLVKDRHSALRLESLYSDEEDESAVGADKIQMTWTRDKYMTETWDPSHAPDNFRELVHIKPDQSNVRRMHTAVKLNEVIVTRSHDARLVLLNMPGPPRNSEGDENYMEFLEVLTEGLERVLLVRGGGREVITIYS
UniProt P53007, sequence (P53007 whole entry, looked up): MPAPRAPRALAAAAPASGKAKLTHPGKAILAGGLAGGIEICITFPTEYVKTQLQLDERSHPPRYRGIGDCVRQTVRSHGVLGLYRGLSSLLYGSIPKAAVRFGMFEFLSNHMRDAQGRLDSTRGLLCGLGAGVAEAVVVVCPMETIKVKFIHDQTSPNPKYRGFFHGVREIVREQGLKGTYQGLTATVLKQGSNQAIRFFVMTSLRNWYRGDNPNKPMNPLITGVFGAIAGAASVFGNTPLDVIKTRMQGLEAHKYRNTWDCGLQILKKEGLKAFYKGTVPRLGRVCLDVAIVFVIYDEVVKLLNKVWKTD
UniProt Q00325, sequence (Q00325 whole entry): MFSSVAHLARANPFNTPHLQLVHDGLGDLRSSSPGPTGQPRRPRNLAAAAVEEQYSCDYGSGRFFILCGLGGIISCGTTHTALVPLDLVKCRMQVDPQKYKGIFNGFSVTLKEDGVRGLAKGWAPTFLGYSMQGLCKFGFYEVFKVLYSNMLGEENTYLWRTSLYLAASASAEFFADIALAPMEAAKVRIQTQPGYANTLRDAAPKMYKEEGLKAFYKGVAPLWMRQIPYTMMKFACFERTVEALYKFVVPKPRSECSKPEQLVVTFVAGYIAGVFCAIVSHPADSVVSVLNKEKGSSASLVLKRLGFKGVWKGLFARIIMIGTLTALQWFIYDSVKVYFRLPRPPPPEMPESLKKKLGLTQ
UniProt P05141, sequence (P05141 whole entry): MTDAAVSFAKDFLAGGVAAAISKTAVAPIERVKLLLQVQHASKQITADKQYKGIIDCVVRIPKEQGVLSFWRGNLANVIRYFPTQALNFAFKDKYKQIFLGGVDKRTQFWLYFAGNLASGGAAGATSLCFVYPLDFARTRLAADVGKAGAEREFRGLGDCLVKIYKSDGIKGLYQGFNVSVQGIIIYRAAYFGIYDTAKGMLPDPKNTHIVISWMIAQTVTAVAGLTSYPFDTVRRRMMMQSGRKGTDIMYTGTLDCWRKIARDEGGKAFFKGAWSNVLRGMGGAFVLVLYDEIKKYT
UniProt Q15599, sequence (Q15599 whole entry): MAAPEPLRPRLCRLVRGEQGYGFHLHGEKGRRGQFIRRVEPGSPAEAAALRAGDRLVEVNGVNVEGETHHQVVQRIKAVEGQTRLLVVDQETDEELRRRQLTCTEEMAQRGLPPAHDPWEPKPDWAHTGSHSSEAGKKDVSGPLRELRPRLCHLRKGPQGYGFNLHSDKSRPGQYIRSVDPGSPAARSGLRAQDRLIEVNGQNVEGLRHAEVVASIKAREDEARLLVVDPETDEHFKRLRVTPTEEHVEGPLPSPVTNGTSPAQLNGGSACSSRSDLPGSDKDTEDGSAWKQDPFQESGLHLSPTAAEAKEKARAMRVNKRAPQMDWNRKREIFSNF
UniProt P12236, sequence (P12236 whole entry): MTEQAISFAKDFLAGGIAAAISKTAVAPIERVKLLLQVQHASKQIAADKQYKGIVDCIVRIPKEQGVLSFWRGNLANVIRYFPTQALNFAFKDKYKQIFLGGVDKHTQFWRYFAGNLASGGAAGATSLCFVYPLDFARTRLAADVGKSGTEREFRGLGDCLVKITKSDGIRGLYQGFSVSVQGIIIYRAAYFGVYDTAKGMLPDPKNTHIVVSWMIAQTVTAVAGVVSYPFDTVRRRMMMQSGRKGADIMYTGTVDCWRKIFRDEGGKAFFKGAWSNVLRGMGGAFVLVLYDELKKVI
UniProt O14745, sequence (O14745 whole entry): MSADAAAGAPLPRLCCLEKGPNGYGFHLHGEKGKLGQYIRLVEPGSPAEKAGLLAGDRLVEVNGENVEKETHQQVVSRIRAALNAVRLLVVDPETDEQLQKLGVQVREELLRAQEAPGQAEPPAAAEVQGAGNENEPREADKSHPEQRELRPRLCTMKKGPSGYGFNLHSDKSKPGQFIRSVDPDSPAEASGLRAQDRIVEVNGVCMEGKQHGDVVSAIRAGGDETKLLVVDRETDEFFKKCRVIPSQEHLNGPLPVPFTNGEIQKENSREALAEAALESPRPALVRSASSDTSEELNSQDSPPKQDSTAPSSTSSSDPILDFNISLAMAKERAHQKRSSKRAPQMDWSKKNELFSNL

Row | Target | thermal stability z-score (lipoamide; [1]) | thermal stability z-score (lipoamide; arsenate co-treatment: none) | thermal stability z-score (potassium arsenate)
1 | SLC9A1 (UniProt P19634) | -0.174 | -0.629 | 0.274
2 | SLC9A3R1 (UniProt O14745) | 0.348 | 0.362 | -0.36
3 | SLC9A3R2 (UniProt Q15599) | -0.0651 | 0.332 | -0.923
4 | SLC9A6 (UniProt Q92581) | -0.145 | -0.0692 | -0.165
5 | SLC11A2 (UniProt P49281) | -1.6 | -0.179 | 0.512
6 | SLC12A2 (UniProt P55011) | -0.435 | -0.195 | -0.72
7 | SLC12A4 (UniProt Q9UP95) | -0.481 | -1.18 | -0.606
8 | SLC12A6 (UniProt Q9UHW9) | -0.454 | -0.27 | 0.131
9 | SLC15A4 (UniProt Q8N697) | 0.836 | 0.0913 | -0.239
10 | SLC16A1 (UniProt P53985) | 0.774 | 1.02 | 0.385
11 | SLC16A3 (UniProt O15427) | 0.645 | 0.712 | 0.351
12 | SLC17A5 (UniProt Q9NRA2) | 0.265 | 0.076 | -0.982
13 | SLC18B1 (UniProt Q6NT16) | -0.405 | -0.045 | -0.173
14 | SLC19A1 (UniProt P41440) | -0.381 | -0.505 | 0.0431
15 | SLC20A1 (UniProt Q8WUM9) | 0.249 | 0.0269 | -0.23
16 | SLC22A18 (UniProt Q96BI1) | 0.00763 | -0.34 | -0.0251
17 | SLC25A1 (UniProt P53007) | 1.03 | 0.6 | 0.43
18 | SLC25A3 (UniProt Q00325) | 0.802 | 0.951 | 0.572
19 | SLC25A4 (UniProt P12235) | -0.0513 | 0.0728 | 0.373
20 | SLC25A5 (UniProt P05141) | 0.657 | 0.589 | 0.562
21 | SLC25A6 (UniProt P12236) | 0.809 | 0.762 | 0.433
22 | SLC25A11 (UniProt Q02978) | 0.183 | 0.431 | 0.593
23 | SLC25A12 (UniProt O75746) | -0.149 | -0.154 | -0.0761
24 | SLC25A13 (UniProt Q9UJS0) | -0.445 | -0.77 | -0.312
25 | SLC25A15 (UniProt Q9Y619) | 0.309 | 0.0332 | 0.22
26 | SLC25A17 (UniProt O43808) | -0.416 | -0.577 | -0.824
27 | SLC25A19 (UniProt Q9HC21) | -0.0932 | 0.281 | -0.374
28 | SLC25A20 (UniProt O43772) | 2.62 | 0.0858 | -0.0934
29 | SLC25A22 (UniProt Q9H936) | -0.147 | 0.0868 | -0.472
30 | SLC25A24 (UniProt Q6NUK1) | -0.0911 | -0.127 | 0.205
